Measured values reported in US20230056057A1, “HERBICIDE CO[…] MONOETHANOLAMINE SALT AND A PPO-INHIBITOR” (MONSANTO TECHNOLOGY LLC, priority 2020, published 2023).
Counter-ions that a name gives are not always drawn.

| Compound | crystallization at higher loadings (higher loadings) | tendency to salt out (at higher concentrations, compared to the dicamba DGA salt) |
| --- | --- | --- |
| COc1c(Cl)ccc(Cl)c1C(=O)O.NCCOCCO [dicamba DGA salt, diglycolamine (DGA) salt of dicamba] | crystallizes out |  |
| COc1c(Cl)ccc(Cl)c1C(=O)O [dicamba EA salt, dicamba monoethanolamine salt] |  | less tendency to salt out |
